Where two headings read alike, the source gives them in different places.
Tests used:
[1] = system: Salmonella TA98; assay: Salmonella plate-incorporation mutagenicity assay, strain TA98, with S9 mix; format: cell-based; details: for Mutagenic potency, Revertants/µg ± S.E., TA98: plate-incorporation, +S9
[2] = system: Salmonella TA100; assay: Salmonella plate-incorporation mutagenicity assay, strain TA100; format: cell-based; details: for Mutagenic potency, Revertants/µg ± S.E., TA100 / Mutagenicity call TA100: plate-incorporation, +S9
[3] = system: Salmonella TA104; assay: Salmonella plate-incorporation mutagenicity assay, strain TA104, with S9 mix; format: cell-based
[4] = system: strain TA100; format: cell-based, Salmonella; details: TA100 liquid-suspension; for Rev/10^6 survivors: DMSO 0.8; for Percent survival: DMSO 100
[5] = system: DNA from Salmonella TA100; assay: Stable DNA adducts by 32P-postlabeling in DNA of treated TA100; format: cell-based; details: DMSO 0.024 ± 0.000
[6] = system: DNA from Salmonella TA100; assay: Abasic sites by aldehydic-site assay in DNA of treated TA100; format: cell-based; details: DMSO 5.9 ± 0.33
[7] = system: Salmonella; details: cited from earlier work
[8] = incubation with rat liver microsomes; cited from earlier work
[9] = TA98 +S9, Test 1, 2 µg/plate, zero-dose 33/40/39
[10] = TA98 +S9, Test 1, 5 µg/plate, zero-dose 33/40/39
[11] = TA98 +S9, Test 1, 10 µg/plate, zero-dose 33/40/39
[12] = TA98 +S9, Test 1, 20 µg/plate, zero-dose 33/40/39
[13] = TA98 +S9, Test 1, 40 µg/plate, zero-dose 33/40/39
[14] = TA98 +S9, Test 1, 80 µg/plate, zero-dose 33/40/39
[15] = TA98 +S9, Test 2, 0.5 µg/plate, zero-dose 43/41/30
[16] = TA98 +S9, Test 3, 0.5 µg/plate, zero-dose 49/50/50
[17] = TA100 +S9, Test 2, 0.5 µg/plate, zero-dose 84/78/80
[18] = TA100 +S9, Test 3, 0.5 µg/plate, zero-dose 127/118/125
[19] = TA104 +S9, Test 2, 0.5 µg/plate, zero-dose 276/260/270
[20] = TA104 +S9, Test 2, 1 µg/plate, zero-dose 276/260/270
[21] = TA104 +S9, Test 2, 2 µg/plate, zero-dose 276/260/270
[22] = TA104 +S9, Test 2, 5 µg/plate, zero-dose 276/260/270
[23] = TA104 +S9, Test 3, 0.5 µg/plate, zero-dose 402/395/336
[24] = TA104 +S9, Test 3, 1 µg/plate, zero-dose 402/395/336
[25] = TA104 +S9, Test 3, 2 µg/plate, zero-dose 402/395/336
[26] = TA104 +S9, Test 3, 5 µg/plate, zero-dose 402/395/336

Work on `c1ccc2c(c1)ccc1ccc3sccc3c12` [P[3,4-b]T, Phenanthro[3,4,-b]thiophene] yielded a Rev/plate [1, 9] of 81 rev/plate, a Rev/plate [1, 10] of 80 rev/plate and a Rev/plate [1, 11] of 62 rev/plate. The Rev/plate [1, 12] was 54 rev/plate, the Rev/plate [1, 13] was 60 rev/plate and the Rev/plate [1, 14] was 55 rev/plate. The Rev/plate ([1]; TA98 +S9, Test 2, 0.05 µg/plate, zero-dose 43/41/30) was 30/40, the Rev/plate ([1]; TA98 +S9, Test 2, 0.1 µg/plate, zero-dose 43/41/30) was 31/33 and the Rev/plate ([1]; TA98 +S9, Test 2, 0.25 µg/plate, zero-dose 43/41/30) was 33/32. The Rev/plate [1, 15] was 58/34, the Rev/plate ([1]; TA98 +S9, Test 3, 0.05 µg/plate, zero-dose 49/50/50) was 57/49 and the Rev/plate ([1]; TA98 +S9, Test 3, 0.1 µg/plate, zero-dose 49/50/50) was 50/51. The Rev/plate ([1]; TA98 +S9, Test 3, 0.25 µg/plate, zero-dose 49/50/50) was 40/63, the Rev/plate [1, 16] was 66/69 and the “Mutagenic potency, Revertants/µg ± S.E., TA98” value [1] was 0.2 ± 0.2 rev/µg. The Rev/plate ([2]; TA100 +S9, Test 2, 0.05 µg/plate, zero-dose 84/78/80) was 131/124, the Rev/plate ([2]; TA100 +S9, Test 2, 0.1 µg/plate, zero-dose 84/78/80) was 120/128 and the Rev/plate ([2]; TA100 +S9, Test 2, 0.25 µg/plate, zero-dose 84/78/80) was 235/243. The Rev/plate [2, 17] was 389/354, the Rev/plate ([2]; TA100 +S9, Test 3, 0.05 µg/plate, zero-dose 127/118/125) was 151/163 and the Rev/plate ([2]; TA100 +S9, Test 3, 0.1 µg/plate, zero-dose 127/118/125) was 187/201. The Rev/plate ([2]; TA100 +S9, Test 3, 0.25 µg/plate, zero-dose 127/118/125) was 344/311, the Rev/plate [2, 18] was 450/508 and the Rev/plate ([2]; TA100 +S9, Test 4, 0.05 µg/plate, zero-dose 112/140/115) was 144/123. The Rev/plate ([2]; TA100 +S9, Test 4, 0.1 µg/plate, zero-dose 112/140/115) was 159/169, the Rev/plate ([2]; TA100 +S9, Test 4, 0.25 µg/plate, zero-dose 112/140/115) was 216/227 and the Rev/plate ([2]; TA100 +S9, Test 4, 0.5 µg/plate, zero-dose 112/140/115) was 333/364. For the same molecule, the Rev/plate ([2]; TA100 +S9, Test 5, 0.05 µg/plate, zero-dose 102/119/99) was 136/140, the Rev/plate ([2]; TA100 +S9, Test 5, 0.1 µg/plate, zero-dose 102/119/99) was 175/132 and the Rev/plate ([2]; TA100 +S9, Test 5, 0.25 µg/plate, zero-dose 102/119/99) was 237/166. For the same molecule, the Rev/plate ([2]; TA100 +S9, Test 5, 0.5 µg/plate, zero-dose 102/119/99) was 366/305, the “Mutagenic potency, Revertants/µg ± S.E., TA100” value [2] was 550 ± 61 rev/µg and the “Mutagenicity call TA100” value [2] was “(+) (Called mutagenic (+) based on showing reproducible, dose-related increases in rev/plate that reached or exceeded 2-fold relative to zero-dose controls)”. For the same molecule, the Rev/plate [3, 19] was 335/385, the Rev/plate [3, 20] was 461/542 and the Rev/plate [3, 21] was 569/553. The Rev/plate [3, 22] was 582/601, the Rev/plate [3, 23] was 507/473 and the Rev/plate [3, 24] was 571/559. The Rev/plate [3, 25] was 604/630, the Rev/plate [3, 26] was 535/679 and the “Mutagenic potency, Revertants/µg ± S.E., TA104” value ([3]; plate-incorporation, +S9) was 210 ± 84 rev/µg. For the same molecule, the “Fold increase in mutant frequency relative to DMSO-treated cells” value ([4]; 10 µg/ml) was 5.3 fold, the “Rev/10^6 survivors” value ([4]; 10 µg/ml) was 4.3 Rev/10^6 survivors and the Percent survival ([4]; 10 µg/ml) was 24%. For the same molecule, the “Stable adducts/10^8 nucleotides ± S.E” value ([5]; TA100, 10 µg/ml) was 0.090 ± 0.007 adducts/10^8 nucleotides, the “Abasic sites/10^5 nucleotides ± S.E” value ([6]; TA100, 10 µg/ml) was 6.2 ± 0.26 sites/10^5 nucleotides and the “Reported Mutagenicity” value [7] was “mutagenic”. For the same molecule, the “Major relatively nonpolar metabolite(s), share of the total metabolites” value [8] was 80–96%.

With `c1ccc2c(c1)ccc1ccc3ccccc3c12` [B[c]P, Benzo[c]phenanthrene] the Rev/plate [1, 9] was 37 rev/plate, the Rev/plate [1, 10] was 43 rev/plate and the Rev/plate [1, 11] was 57 rev/plate. It also gave a Rev/plate [1, 12] of 60 rev/plate, a Rev/plate [1, 13] of 50 rev/plate and a Rev/plate [1, 14] of 35 rev/plate. For the same molecule, the Rev/plate [1, 15] was 44/36, the Rev/plate ([1]; TA98 +S9, Test 2, 1 µg/plate, zero-dose 43/41/30) was 41/35 and the Rev/plate ([1]; TA98 +S9, Test 2, 2 µg/plate, zero-dose 43/41/30) was 38/37. The Rev/plate ([1]; TA98 +S9, Test 2, 5 µg/plate, zero-dose 43/41/30) was 56/50, the Rev/plate [1, 16] was 49/36 and the Rev/plate ([1]; TA98 +S9, Test 3, 1 µg/plate, zero-dose 49/50/50) was 52/54. The Rev/plate ([1]; TA98 +S9, Test 3, 2 µg/plate, zero-dose 49/50/50) was 60/50, the Rev/plate ([1]; TA98 +S9, Test 3, 5 µg/plate, zero-dose 49/50/50) was 87/61 and the “Mutagenic potency, Revertants/µg ± S.E., TA98” value [1] was 1.2 ± 1.3 rev/µg. For the same molecule, the Rev/plate ([2]; TA100 +S9, Test 1, 2 µg/plate, zero-dose 99/110/110) was 251 rev/plate, the Rev/plate ([2]; TA100 +S9, Test 1, 5 µg/plate, zero-dose 99/110/110) was 388 rev/plate and the Rev/plate ([2]; TA100 +S9, Test 1, 10 µg/plate, zero-dose 99/110/110) was 467 rev/plate. The Rev/plate ([2]; TA100 +S9, Test 1, 20 µg/plate, zero-dose 99/110/110) was 503 rev/plate, the Rev/plate ([2]; TA100 +S9, Test 1, 40 µg/plate, zero-dose 99/110/110) was 494 rev/plate and the Rev/plate ([2]; TA100 +S9, Test 1, 80 µg/plate, zero-dose 99/110/110) was 354 rev/plate. For the same molecule, the Rev/plate [2, 17] was 97/85, the Rev/plate ([2]; TA100 +S9, Test 2, 1 µg/plate, zero-dose 84/78/80) was 114/78 and the Rev/plate ([2]; TA100 +S9, Test 2, 2 µg/plate, zero-dose 84/78/80) was 117/143. The Rev/plate ([2]; TA100 +S9, Test 2, 5 µg/plate, zero-dose 84/78/80) was 300/204, the Rev/plate [2, 18] was 180/190 and the Rev/plate ([2]; TA100 +S9, Test 3, 1 µg/plate, zero-dose 127/118/125) was 250/217. For the same molecule, the Rev/plate ([2]; TA100 +S9, Test 3, 2 µg/plate, zero-dose 127/118/125) was 300/303, the Rev/plate ([2]; TA100 +S9, Test 3, 5 µg/plate, zero-dose 127/118/125) was 510/499 and the “Mutagenic potency, Revertants/µg ± S.E., TA100” value [2] was 56.4 ± 12.1 rev/µg. The “Mutagenicity call TA100” value [2] was “(+) (Called mutagenic (+) based on showing reproducible, dose-related increases in rev/plate that reached or exceeded 2-fold relative to zero-dose controls)”, the Rev/plate [3, 19] was 432/407 and the Rev/plate [3, 20] was 504/506. For the same molecule, the Rev/plate [3, 21] was 570/609, the Rev/plate [3, 22] was 753/894 and the Rev/plate [3, 23] was 523/486. The Rev/plate [3, 24] was 636/581, the Rev/plate [3, 25] was 588/660 and the Rev/plate [3, 26] was 850/824. For the same molecule, the “Mutagenic potency, Revertants/µg ± S.E., TA104” value ([3]; plate-incorporation, +S9) was 241 ± 25 rev/µg, the “Mutagenicity call TA104” value ([3]; plate-incorporation, +S9) was “(+) (Called mutagenic (+) based on showing reproducible, dose-related increases in rev/plate that reached or exceeded 2-fold relative to zero-dose controls)” and the “Fold increase in mutant frequency relative to DMSO-treated cells” value ([4]; 20 µg/ml) was 3.9 fold. For the same molecule, the “Rev/10^6 survivors” value ([4]; 20 µg/ml) was 3.1 Rev/10^6 survivors, the Percent survival ([4]; 20 µg/ml) was 71% and the “Stable adducts/10^8 nucleotides ± S.E” value ([5]; TA100, 20 µg/ml) was 1.600 ± 0.040 adducts/10^8 nucleotides. For the same molecule, the “Abasic sites/10^5 nucleotides ± S.E” value ([6]; TA100, 20 µg/ml) was 3.3 ± 0.12 sites/10^5 nucleotides and the “Mutagenicity in Salmonella (early studies)” value [7] was “mutagenic”.
